# Experiments:
# Assay in all cases: KINOMEscan competition binding
# Conditions in all cases: compound 10.0 µM
# BRAF (human) = BRAF (human) (UniProt P15056)
# BTK (human) = BTK (human) (UniProt Q06187)
# CDK13 (human) = CDK13 (human) (UniProt Q14004)
# CDK4 CCND1 (human) = CDK4 CCND1 (human) (UniProt P11802+P24385)
# CDKL3 (human) = CDKL3 (human) (UniProt Q8IVW4)
# CDKL5 (human) = CDKL5 (human) (UniProt O76039)
# CRK2 (P.falciparum) = CRK2 (P.falciparum) (UniProt P61075)
# DDR1 (human) = DDR1 (human) (UniProt Q08345)
# DYRK1A (human) = DYRK1A (human) (UniProt Q13627)
# DYRK2 (human) = DYRK2 (human) (UniProt Q92630)
# [1] = system: EGFR (human), P00533 [746-750 del]
# [2] = system: EGFR (human), P00533 [G719S]
# [3] = system: EGFR (human), P00533 [L861Q]
# [4] = system: EGFR (human), P00533 [P753S; 747-752 del]
# [5] = system: FLT3 (human), P36888 [K663Q]
# GRK7 (human) = GRK7 (human) (UniProt Q8WTQ7)
# Chain of GRK7 (human) (Q8WTQ7 whole entry, looked up): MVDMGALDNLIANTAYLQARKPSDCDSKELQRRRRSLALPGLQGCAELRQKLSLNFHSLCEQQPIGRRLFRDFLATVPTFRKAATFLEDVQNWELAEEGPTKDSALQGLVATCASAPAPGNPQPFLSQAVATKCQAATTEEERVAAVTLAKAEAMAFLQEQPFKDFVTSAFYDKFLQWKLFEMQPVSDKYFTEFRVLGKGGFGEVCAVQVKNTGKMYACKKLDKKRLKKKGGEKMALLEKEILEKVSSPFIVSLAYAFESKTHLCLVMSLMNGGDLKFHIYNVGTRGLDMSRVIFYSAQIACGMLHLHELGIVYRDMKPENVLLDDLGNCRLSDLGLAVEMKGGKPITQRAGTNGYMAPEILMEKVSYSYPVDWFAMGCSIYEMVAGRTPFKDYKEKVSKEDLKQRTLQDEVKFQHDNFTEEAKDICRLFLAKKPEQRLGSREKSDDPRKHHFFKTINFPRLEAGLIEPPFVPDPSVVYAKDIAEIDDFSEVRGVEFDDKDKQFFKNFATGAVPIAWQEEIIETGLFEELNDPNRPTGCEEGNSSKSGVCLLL
# IRAK4 (human) = IRAK4 (human) (UniProt Q9NWZ3)
# KIT (human) = KIT (human) (UniProt P10721)
# Chain of KIT (human) (P10721 whole entry, looked up): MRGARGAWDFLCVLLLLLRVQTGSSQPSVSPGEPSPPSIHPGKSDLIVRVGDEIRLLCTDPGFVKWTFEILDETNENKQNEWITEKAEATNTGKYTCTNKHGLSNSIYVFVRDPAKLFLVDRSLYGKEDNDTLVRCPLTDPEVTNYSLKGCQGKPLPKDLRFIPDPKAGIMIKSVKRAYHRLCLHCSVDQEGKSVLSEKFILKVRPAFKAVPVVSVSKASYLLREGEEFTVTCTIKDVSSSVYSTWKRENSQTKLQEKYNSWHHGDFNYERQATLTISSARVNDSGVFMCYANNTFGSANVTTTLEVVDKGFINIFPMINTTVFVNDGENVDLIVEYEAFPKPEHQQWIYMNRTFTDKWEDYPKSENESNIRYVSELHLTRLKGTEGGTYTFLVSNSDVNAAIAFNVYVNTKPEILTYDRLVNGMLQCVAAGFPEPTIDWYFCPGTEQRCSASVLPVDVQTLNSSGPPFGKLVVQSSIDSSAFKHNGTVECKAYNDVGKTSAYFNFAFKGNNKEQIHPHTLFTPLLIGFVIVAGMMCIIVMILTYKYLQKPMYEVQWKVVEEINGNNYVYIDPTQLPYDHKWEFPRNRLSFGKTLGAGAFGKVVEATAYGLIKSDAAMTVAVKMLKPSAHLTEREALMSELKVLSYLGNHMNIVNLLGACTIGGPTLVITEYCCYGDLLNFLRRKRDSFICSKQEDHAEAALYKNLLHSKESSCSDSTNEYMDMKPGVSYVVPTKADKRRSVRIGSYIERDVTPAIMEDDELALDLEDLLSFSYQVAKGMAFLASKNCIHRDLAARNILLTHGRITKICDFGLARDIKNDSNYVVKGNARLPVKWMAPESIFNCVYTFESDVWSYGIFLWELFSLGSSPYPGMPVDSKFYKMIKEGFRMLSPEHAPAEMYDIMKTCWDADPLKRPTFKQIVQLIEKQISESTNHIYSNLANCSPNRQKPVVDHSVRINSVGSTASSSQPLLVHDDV
# [6] = system: KIT (human), P10721 [V559D/T670I]
# Chain of KIT (human), P10721 [V559D/T670I] (P10721 whole entry V559D/T670I, looked up): as the sequence (P10721 whole entry, looked up) above, with V559D, T670I counted along it
# MAK (human) = MAK (human) (UniProt P20794)
# MAP2K5 (human) = MAP2K5 (human) (UniProt Q13163)
# MAP3K15 (human) = MAP3K15 (human) (UniProt Q6ZN16)
# Chain of MAP3K15 (human) (Q6ZN16 whole entry, looked up): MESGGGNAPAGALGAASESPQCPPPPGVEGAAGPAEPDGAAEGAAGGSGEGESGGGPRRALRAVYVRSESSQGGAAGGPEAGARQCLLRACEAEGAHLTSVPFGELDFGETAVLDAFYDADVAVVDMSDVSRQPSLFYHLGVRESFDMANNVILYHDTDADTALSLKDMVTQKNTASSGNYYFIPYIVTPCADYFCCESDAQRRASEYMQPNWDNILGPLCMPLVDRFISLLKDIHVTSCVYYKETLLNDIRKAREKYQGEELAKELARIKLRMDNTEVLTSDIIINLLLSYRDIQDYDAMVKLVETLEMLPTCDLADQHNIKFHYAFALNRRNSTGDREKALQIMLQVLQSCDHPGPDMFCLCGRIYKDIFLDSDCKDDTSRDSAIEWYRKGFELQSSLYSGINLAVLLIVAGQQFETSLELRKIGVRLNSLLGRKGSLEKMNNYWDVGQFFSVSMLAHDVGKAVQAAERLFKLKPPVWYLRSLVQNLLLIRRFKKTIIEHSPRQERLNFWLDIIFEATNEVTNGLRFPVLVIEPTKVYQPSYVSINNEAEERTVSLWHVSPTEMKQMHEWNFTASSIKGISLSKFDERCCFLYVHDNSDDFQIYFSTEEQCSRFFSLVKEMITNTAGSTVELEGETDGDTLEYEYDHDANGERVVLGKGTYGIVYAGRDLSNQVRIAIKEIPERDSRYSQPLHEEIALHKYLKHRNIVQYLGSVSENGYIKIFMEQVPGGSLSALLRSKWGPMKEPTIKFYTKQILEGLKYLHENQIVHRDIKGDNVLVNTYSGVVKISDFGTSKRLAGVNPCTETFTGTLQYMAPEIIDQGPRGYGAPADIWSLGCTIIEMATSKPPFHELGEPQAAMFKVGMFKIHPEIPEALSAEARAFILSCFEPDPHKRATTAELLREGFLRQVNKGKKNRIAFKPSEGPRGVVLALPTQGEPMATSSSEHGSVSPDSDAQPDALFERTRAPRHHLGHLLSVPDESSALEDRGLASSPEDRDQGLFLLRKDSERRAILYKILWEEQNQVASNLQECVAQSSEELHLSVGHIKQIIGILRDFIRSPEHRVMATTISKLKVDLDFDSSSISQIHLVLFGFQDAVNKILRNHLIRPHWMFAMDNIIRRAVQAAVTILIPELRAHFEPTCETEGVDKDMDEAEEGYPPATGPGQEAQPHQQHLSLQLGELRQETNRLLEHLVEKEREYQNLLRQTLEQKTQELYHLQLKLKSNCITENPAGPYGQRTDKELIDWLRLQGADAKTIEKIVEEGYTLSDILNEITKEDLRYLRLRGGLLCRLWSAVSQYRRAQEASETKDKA
# MYLK3 (human) = MYLK3 (human) (UniProt Q32MK0)
# NEK4 (human) = NEK4 (human) (UniProt P51957)
# NIM1 (human) = NIM1 (human) (UniProt Q8IY84)
# Chain of NIM1 (human) (Q8IY84 whole entry, looked up): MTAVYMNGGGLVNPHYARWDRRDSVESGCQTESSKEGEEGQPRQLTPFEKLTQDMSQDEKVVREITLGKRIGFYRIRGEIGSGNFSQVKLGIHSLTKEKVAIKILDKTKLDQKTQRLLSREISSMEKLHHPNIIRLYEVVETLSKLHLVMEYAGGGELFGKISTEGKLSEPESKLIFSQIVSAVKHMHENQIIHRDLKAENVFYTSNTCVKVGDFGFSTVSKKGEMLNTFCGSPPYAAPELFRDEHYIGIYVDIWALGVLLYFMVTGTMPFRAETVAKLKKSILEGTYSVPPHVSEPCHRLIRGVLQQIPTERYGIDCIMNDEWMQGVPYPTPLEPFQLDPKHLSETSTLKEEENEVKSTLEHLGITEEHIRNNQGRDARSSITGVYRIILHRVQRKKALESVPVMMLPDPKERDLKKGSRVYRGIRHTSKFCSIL
# OXSR1 (human) = OXSR1 (human) (UniProt O95747)
# [7] = system: PIK3CA (human), P42336 [I800L]
# PIP4K2C (human) = PIP4K2C (human) (UniProt Q8TBX8)
# PKN3 (M.tuberculosis) = PKN3 (M.tuberculosis) (UniProt Q6P5Z2)
# PLK2 (human) = PLK2 (human) (UniProt Q9NYY3)
# Chain of PLK2 (human) (Q9NYY3 whole entry, looked up): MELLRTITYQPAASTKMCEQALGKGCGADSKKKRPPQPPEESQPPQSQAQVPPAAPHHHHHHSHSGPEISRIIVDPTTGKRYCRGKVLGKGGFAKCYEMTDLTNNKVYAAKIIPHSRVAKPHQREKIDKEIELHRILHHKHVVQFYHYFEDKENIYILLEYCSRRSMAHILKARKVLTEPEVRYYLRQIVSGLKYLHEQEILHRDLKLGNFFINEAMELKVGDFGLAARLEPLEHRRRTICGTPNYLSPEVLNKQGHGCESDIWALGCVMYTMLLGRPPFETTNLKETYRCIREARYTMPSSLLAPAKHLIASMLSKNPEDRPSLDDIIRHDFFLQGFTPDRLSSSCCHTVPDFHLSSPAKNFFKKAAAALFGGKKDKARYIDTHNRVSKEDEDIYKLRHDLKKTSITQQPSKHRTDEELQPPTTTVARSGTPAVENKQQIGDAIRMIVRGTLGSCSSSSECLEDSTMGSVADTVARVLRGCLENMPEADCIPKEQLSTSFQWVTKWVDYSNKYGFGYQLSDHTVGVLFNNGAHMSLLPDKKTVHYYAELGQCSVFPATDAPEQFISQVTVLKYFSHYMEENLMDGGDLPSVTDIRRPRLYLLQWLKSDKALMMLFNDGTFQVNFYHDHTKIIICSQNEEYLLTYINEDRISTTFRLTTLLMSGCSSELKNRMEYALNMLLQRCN
# PRKCI (human) = PRKCI (human) (UniProt P41743)
# Chain of PRKCI (human) (P41743 whole entry, looked up): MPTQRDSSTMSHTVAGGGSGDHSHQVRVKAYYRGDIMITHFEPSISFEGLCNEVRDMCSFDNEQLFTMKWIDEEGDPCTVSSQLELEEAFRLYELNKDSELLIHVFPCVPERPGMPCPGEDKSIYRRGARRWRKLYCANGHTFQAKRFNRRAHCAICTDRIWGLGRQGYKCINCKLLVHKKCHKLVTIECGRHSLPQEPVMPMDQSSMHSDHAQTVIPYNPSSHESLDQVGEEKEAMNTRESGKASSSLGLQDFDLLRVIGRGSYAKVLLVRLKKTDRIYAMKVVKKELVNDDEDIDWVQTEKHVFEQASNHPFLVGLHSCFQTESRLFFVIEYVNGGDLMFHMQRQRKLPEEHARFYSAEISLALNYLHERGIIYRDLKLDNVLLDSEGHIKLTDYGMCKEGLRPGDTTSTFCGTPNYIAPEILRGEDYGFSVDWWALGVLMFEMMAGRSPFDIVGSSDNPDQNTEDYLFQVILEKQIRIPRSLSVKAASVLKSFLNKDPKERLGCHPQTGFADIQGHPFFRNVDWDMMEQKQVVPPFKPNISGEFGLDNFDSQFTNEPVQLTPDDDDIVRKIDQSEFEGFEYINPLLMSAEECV
# RPS6KB1 (human) = RPS6KB1 (human) (UniProt P23443)
# SBK1 (human) = SBK1 (human) (UniProt Q52WX2)
# SGK3 (human) = SGK3 (human) (UniProt Q96BR1)
# STK32A (human) = STK32A (human) (UniProt Q8WU08)
# STK38 (human) = STK38 (human) (UniProt Q15208)
# Chain of STK38 (human) (Q15208 whole entry, looked up): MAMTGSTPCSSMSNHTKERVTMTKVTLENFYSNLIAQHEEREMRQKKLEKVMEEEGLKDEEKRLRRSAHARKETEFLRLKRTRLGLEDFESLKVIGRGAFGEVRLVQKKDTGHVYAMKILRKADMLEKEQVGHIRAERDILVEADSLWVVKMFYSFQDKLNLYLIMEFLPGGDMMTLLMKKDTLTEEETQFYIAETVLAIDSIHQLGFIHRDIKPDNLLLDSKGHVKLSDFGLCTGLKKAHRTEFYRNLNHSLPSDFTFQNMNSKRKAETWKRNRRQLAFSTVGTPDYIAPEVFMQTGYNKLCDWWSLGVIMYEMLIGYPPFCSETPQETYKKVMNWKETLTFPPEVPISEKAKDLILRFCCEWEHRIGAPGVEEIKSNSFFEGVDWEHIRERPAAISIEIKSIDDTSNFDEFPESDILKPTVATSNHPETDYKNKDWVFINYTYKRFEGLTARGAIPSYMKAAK
# TBK1 (human) = TBK1 (human) (UniProt Q9UHD2)
# [8] = system: PIK3CA (human), P42336 [C420R]
# [9] = system: PIK3CA (human), P42336 [H1047Y]
# [10] = system: PIK3CA (human), P42336 [Q546K]
SMILES,"kinase still bound, per cent of control (BRAF (human)) [%]","kinase still bound, per cent of control (BTK (human)) [%]","kinase still bound, per cent of control (CDK13 (human)) [%]","kinase still bound, per cent of control (CDK4 CCND1 (human)) [%]","kinase still bound, per cent of control (CDKL3 (human)) [%]","kinase still bound, per cent of control (CDKL5 (human)) [%]","kinase still bound, per cent of control (CRK2 (P.falciparum)) [%]","kinase still bound, per cent of control (DDR1 (human)) [%]","kinase still bound, per cent of control (DYRK1A (human)) [%]","kinase still bound, per cent of control (DYRK2 (human)) [%]","kinase still bound, per cent of control [1] [%]","kinase still bound, per cent of control [2] [%]","kinase still bound, per cent of control [3] [%]","kinase still bound, per cent of control [4] [%]","kinase still bound, per cent of control [5] [%]","kinase still bound, per cent of control (GRK7 (human)) [%]","kinase still bound, per cent of control (IRAK4 (human)) [%]","kinase still bound, per cent of control (KIT (human)) [%]","kinase still bound, per cent of control [6] [%]","kinase still bound, per cent of control (MAK (human)) [%]",also measured
Nc1ccc(-c2ccc3ncc4ccc(=O)n(-c5cccc(C(F)(F)F)c5)c4c3c2)cn1,73,100,100,100,100,100,100,100,75,88,92,88,93,98,18,60,85,55,68,96,"kinase still bound, per cent of control (MAP2K5 (human)): 84%; kinase still bound, per cent of control (MAP3K15 (human)): 100%; kinase still bound, per cent of control (MYLK3 (human)): 100%; kinase still bound, per cent of control (NEK4 (human)): 100%; kinase still bound, per cent of control (NIM1 (human)): 100%; kinase still bound, per cent of control (OXSR1 (human)): 100%; kinase still bound, per cent of control [7]: 0%; kinase still bound, per cent of control (PIP4K2C (human)): 21%; kinase still bound, per cent of control (PKN3 (M.tuberculosis)): 63%; kinase still bound, per cent of control (PLK2 (human)): 100%; kinase still bound, per cent of control (PRKCI (human)): 100%; kinase still bound, per cent of control (RPS6KB1 (human)): 86%; kinase still bound, per cent of control (SBK1 (human)): 100%; kinase still bound, per cent of control (SGK3 (human)): 100%; kinase still bound, per cent of control (STK32A (human)): 100%; kinase still bound, per cent of control (STK38 (human)): 100%; kinase still bound, per cent of control (TBK1 (human)): 100%"
O=C1Nc2ccc(I)cc2/C1=C/c1cc(Br)c(O)c(Br)c1,0.9,99,100,65,88,92,90,85,26,54,36,84,55,50,11,73,90,3.4,23,100,"kinase still bound, per cent of control (MAP2K5 (human)): 56%; kinase still bound, per cent of control (MAP3K15 (human)): 80%; kinase still bound, per cent of control (MYLK3 (human)): 10%; kinase still bound, per cent of control (NEK4 (human)): 93%; kinase still bound, per cent of control (NIM1 (human)): 100%; kinase still bound, per cent of control (OXSR1 (human)): 100%; kinase still bound, per cent of control [8]: 100%; kinase still bound, per cent of control [9]: 76%; kinase still bound, per cent of control [7]: 61%; kinase still bound, per cent of control [10]: 97%; kinase still bound, per cent of control (PIP4K2C (human)): 100%; kinase still bound, per cent of control (PKN3 (M.tuberculosis)): 64%; kinase still bound, per cent of control (PLK2 (human)): 71%; kinase still bound, per cent of control (PRKCI (human)): 100%; kinase still bound, per cent of control (RPS6KB1 (human)): 81%; kinase still bound, per cent of control (SBK1 (human)): 85%; kinase still bound, per cent of control (SGK3 (human)): 73%; kinase still bound, per cent of control (STK32A (human)): 91%; kinase still bound, per cent of control (STK38 (human)): 64%; kinase still bound, per cent of control (TBK1 (human)): 95%"
Cc1ccc(NC(=O)c2cccc(C(C)(C)C#N)c2)cc1Nc1ccc2ncn(C)c(=O)c2c1,0,66,100,61,100,93,94,0,79,100,15,37,34,19,22,91,83,0,0.35,100,"kinase still bound, per cent of control (MAP2K5 (human)): 0.7%; kinase still bound, per cent of control (MAP3K15 (human)): 100%; kinase still bound, per cent of control (MYLK3 (human)): 100%; kinase still bound, per cent of control (NEK4 (human)): 89%; kinase still bound, per cent of control (NIM1 (human)): 100%; kinase still bound, per cent of control (OXSR1 (human)): 96%; kinase still bound, per cent of control [8]: 100%; kinase still bound, per cent of control [9]: 100%; kinase still bound, per cent of control [7]: 100%; kinase still bound, per cent of control [10]: 88%; kinase still bound, per cent of control (PIP4K2C (human)): 100%; kinase still bound, per cent of control (PKN3 (M.tuberculosis)): 100%; kinase still bound, per cent of control (PLK2 (human)): 99%; kinase still bound, per cent of control (PRKCI (human)): 100%; kinase still bound, per cent of control (RPS6KB1 (human)): 100%; kinase still bound, per cent of control (SBK1 (human)): 79%; kinase still bound, per cent of control (SGK3 (human)): 100%; kinase still bound, per cent of control (STK32A (human)): 100%; kinase still bound, per cent of control (STK38 (human)): 100%; kinase still bound, per cent of control (TBK1 (human)): 100%"
